Laboratory results as given in patent US9243002B2, “Tetracyclic heterocycle compounds and methods of use thereof for the treatment of hepatitis C” (priority 2013, dated 2016).
Where two headings read alike, the source gives them in different places.

Columns and labels:
HCV genotype 1a replicon = assay: HCV replicon assay, genotype 1a (cell ELISA for NS3/4A); format: cell-based, hepatitis C virus
Procedure: (§1) Measurement of inhibition by compounds was performed using the HCV replicon system. Several different replicons encoding different HCV genotypes or mutations were used. In addition, potency measurements were made using different formats of the replicon assay, including different ways of measurements and different plating formats. See Jan M. Vrolijk et al., A replicons-based bioassay for the measurement of interferons in patients with chronic hepatitis C, 110 J. VIROLOGICAL METHODS 201 (2003); Steven S. Carroll et al., Inhibition of Hepatitis C Virus RNA Replication by 2′-Modified Nucleoside Analogs, 278 (14) J. BIOLOGICAL CHEMISTRY 11979 (2003). However, the underlying principles are common to all of these determinations, and are outlined below.
(§2) Stable neomycin phosphotransferase encoding replicons-harboring cell lines were used, so all cell lines were maintained under G418 selection prior to the assay. Potency was deteremined using a cell ELISA assay with an antibody to the replicons encoded NS3/4a protease. See Caterina Trozzi et al., In Vitro Selection and Characterization of Hepatitis C Virus Serine Protease Variants Resistant to an Active-Site Peptide Inhibitor, 77 (6) J. Virol. 3669 (2003). To initiate an assay, replicon cells were plated in the presence of a dilution series of test compound in the absence of G418. Typically, the assays were performed in a 96-well plate formate for manual operation, or a 384-well plate format for automated assay. Replicon cells and compound were incubated for 96 hours. At the end of the assay, cells were washed free of media and compound, and the cells were then lysed. RNA was quantified indirectly through detection of replicon-encoded NS3/4A protein levels, through an ELISA-based assay with an antibody specific for NS3/4A. IC50 determinations were calculated as a percentage of a DMSO control by fitting the data to a four-parameter fit function and the data obtained for genotypes 1a and 1b using this method is provided in the table below.

HCV genotype 1b replicon = assay: HCV replicon assay, genotype 1b (cell ELISA for NS3/4A); format: cell-based, hepatitis C virus
Procedure: as §1, §2

[1] = Hepatitis C virus, 96 h, read-out: 1a IC50 (nM), genotype 1a replicon cells, 96 hours incubation, NS3/4A ELISA
[2] = Hepatitis C virus, 96 h, read-out: 1b IC50 (nM), genotype 1b replicon cells, 96 hours incubation, NS3/4A ELISA
[3] = read-out: 1a IC50, genotype 1a replicon cells, 96 hours incubation, NS3/4A ELISA
[4] = read-out: 1b IC50, genotype 1b replicon cells, 96 hours incubation, NS3/4A ELISA

## CNC(=O)c1c(-c2ccc(F)cc2)oc2cc(N(C)S(C)(=O)=O)c(-c3ccc4c(n3)-c3cc5c(F)cccc5n3C4CO)cc12 (stereo not shown) [Example 55]
HCV genotype 1a replicon; [1]
  IC50: 0.971 nM
HCV genotype 1b replicon; [2]
  IC50: 1.81 nM

## CNC(=O)c1c(-c2ccnn2C(C)C)oc2cc(N(C)S(C)(=O)=O)c(-c3ccc4c(n3)-c3cc5c(F)cccc5n3CC4)cc12 [Example 17, 5-(11-fluoro-5,6-dihydroindolo[1,2-h][1,7]naphthyridin-2-yl)-2-(1-isopropyl-1H-pyrazol-5-yl)-N-methyl-6-(N-methylmethylsulfonamido)benzofuran-3-carboxamide]
HCV genotype 1a replicon; [1]
  IC50: 373 nM
HCV genotype 1b replicon; [2]
  IC50: 197 nM

## CNC(=O)c1c(-c2ccc(F)cc2)oc2cc(N(C)S(C)(=O)=O)c(-c3cc4c(cn3)C(C)Cn3c-4cc4c(F)cccc43)cc12 (single isomer, unassigned) [Example 61, (S or R)-5-(11-fluoro-5-methyl-5,6-dihydroindolo[2,1-a][2,6]naphthyridin-2-yl)-2-(4-fluorophenyl)-N-methyl-6-(N-methylmethylsulfonamido)benzofuran-3-carboxamide]
HCV genotype 1a replicon; [3]
  IC50: 2.27 nM
HCV genotype 1b replicon; [4]
  IC50: 7.8 nM

## CNC(=O)c1c(-c2ccc(F)cc2)oc2cc(N(C)S(C)(=O)=O)c(-c3ccc4c(n3)-c3cc5c(F)cccc5n3C(CS(C)(=O)=O)C4)cc12 (single isomer, unassigned) [Example 56, (R or S)-5-(11-fluoro-6-((methylsulfonyl)methyl)-5,6-dihydroindolo[1,2-h][1,7]naphthyridin-2-yl)-2-(4-fluorophenyl)-N-methyl-6-(N-methylmethylsulfonamido)benzofuran-3-carboxamide]
HCV genotype 1a replicon; [3]
  IC50: 3.4 nM
HCV genotype 1b replicon; [2]
  IC50: 2 nM

## CNC(=O)c1c(-c2ccc(F)cc2)oc2cc(N(C)S(C)(=O)=O)c(-c3cc4c(cn3)CC(C)n3c-4cc4c(F)cccc43)cc12 (single isomer, unassigned) [Example 42, (S or R)-5-(11-fluoro-6-methyl-5,6-dihydroindolo[2,1-a][2,6]naphthyridin-2-yl)-2-(4-fluorophenyl)-N-methyl-6-(N-methylmethylsulfonamido)benzofuran-3-carboxamide]
HCV genotype 1a replicon; [3]
  IC50: 3.1 nM
HCV genotype 1b replicon; [4]
  IC50: 5.47 nM

## CNC(=O)c1c(-c2ccc(C(C)C)nc2)oc2cc(N(C)S(C)(=O)=O)c(-c3ccc4c(n3)-c3cc5c(F)cccc5n3CC4)cc12 [Example 11]
HCV genotype 1a replicon; [1]
  IC50: 2120 nM
HCV genotype 1b replicon; [2]
  IC50: 661 nM

## CNC(=O)c1c(-c2ccc(OCC(F)(F)F)nc2)oc2cc(N(C)S(C)(=O)=O)c(-c3ccc4c(n3)-c3cc5c(F)cccc5n3CC4)cc12 [Example 4]
HCV genotype 1a replicon; [1]
  IC50: 6.99 nM
HCV genotype 1b replicon; [2]
  IC50: 7.3 nM

## CNC(=O)c1c(-c2cnn3ncccc23)oc2cc(N(C)S(C)(=O)=O)c(-c3ccc4c(n3)-c3cc5c(F)cccc5n3CC4)cc12 [Example 24]
HCV genotype 1a replicon; [1]
  IC50: 20 nM
HCV genotype 1b replicon; [2]
  IC50: 18.9 nM

## CNC(=O)c1c(-c2ccc(C)nc2)oc2cc(N(C)S(C)(=O)=O)c(-c3ccc4c(n3)-c3cc5c(F)cccc5n3CC(N3CC(F)C3)C4)cc12 (stereo not shown) [Example 71]
HCV genotype 1a replicon; [1]
  IC50: 41.7 nM
HCV genotype 1b replicon; [2]
  IC50: 42.2 nM

## CNC(=O)c1c(-c2ccc(F)cc2)oc2cc(N(C)S(C)(=O)=O)c(-c3ccc4c(n3)-c3c(C)c5ccccc5n3CC4)cc12 [Example 76, 2-(4-fluorophenyl)-N-methyl-5-(12-methyl-5,6-dihydroindolo[1,2-h][1,7]naphthyridin-2-yl)-6-(N-methylmethylsulfonamido)benzofuran-3-carboxamide]
HCV genotype 1a replicon; [1]
  IC50: 1000 nM
HCV genotype 1b replicon; [2]
  IC50: 194 nM

## CNC(=O)c1c(-c2ccc(F)cc2)oc2cc(N(C)S(C)(=O)=O)c(-c3ccc4c(n3)-c3cc5c(F)cccc5n3CC(O)C4)cc12 (stereo not shown) [Example 69]
HCV genotype 1a replicon; [1]
  IC50: 2.3 nM
HCV genotype 1b replicon; [2]
  IC50: 2.95 nM

## CNC(=O)c1c(-c2ccc(C)nc2)oc2cc(N(C)S(C)(=O)=O)c(-c3ccc4c(n3)-c3cc5c(F)cccc5n3C(CCN3CC(F)C3)C4)cc12 (stereo not shown) [Example 67]
HCV genotype 1a replicon; [3]
  IC50: 12.5 nM
HCV genotype 1b replicon; [4]
  IC50: 16.4 nM

## CNC(=O)c1c(-c2ccc(F)cc2)oc2cc(N(C)S(C)(=O)=O)c(-c3ccc4c(n3)-c3cc5c(F)cccc5n3C(CS(C)(=O)=O)C4)cc12 (single isomer, unassigned) [Example 57, (S or R)-5-(11-fluoro-6-((methylsulfonyl)methyl)-5,6-dihydroindolo[1,2-h][1,7]naphthyridin-2-yl)-2-(4-fluorophenyl)-N-methyl-6-(N-methylmethylsulfonamido)benzofuran-3-carboxamide]
HCV genotype 1a replicon; [3]
  IC50: 8.16 nM
HCV genotype 1b replicon; [4]
  IC50: 3.39 nM

## CNC(=O)c1c(-c2cnc(N3CCCC3)s2)oc2cc(N(C)S(C)(=O)=O)c(-c3ccc4c(n3)-c3cc5c(F)cccc5n3CC4)cc12 [Example 22]
HCV genotype 1a replicon; [1]
  IC50: 1450 nM
HCV genotype 1b replicon; [2]
  IC50: 163 nM

## CNC(=O)c1c(-c2ccc(F)cc2)oc2cc(N(C)S(C)(=O)=O)c(-c3ccc4c(n3)-c3cc5c(F)cccc5n3C(CO)C4)cc12 (stereo not shown) [Example 54]
HCV genotype 1a replicon; [3]
  IC50: 1.56 nM
HCV genotype 1b replicon; [4]
  IC50: 2.25 nM

## CNC(=O)c1c(-c2ccc(F)cc2)oc2cc(N(C)S(C)(=O)=O)c(-c3ccc4c(n3)-c3cc5c(F)cccc5n3C4O)cc12 (stereo not shown) [Example 87, 5-(10-fluoro-5-hydroxy-5H-pyrido[2′,3′:3,4]pyrrolo[1,2-a]indol-2-yl)-2-(4-fluorophenyl)-N-methyl-6-(N-methylmethylsulfonamido)benzofuran-3-carboxamide]
HCV genotype 1a replicon; [1]
  IC50: 7.69 nM
HCV genotype 1b replicon; [2]
  IC50: 7.29 nM

## CNC(=O)c1c(-n2cc(C(F)(F)F)cn2)oc2cc(N(C)S(C)(=O)=O)c(-c3ccc4c(n3)-c3cc5c(F)cccc5n3CC4)cc12 [Example 33]
HCV genotype 1a replicon; [1]
  IC50: 170 nM
HCV genotype 1b replicon; [2]
  IC50: 23.6 nM

## CNC(=O)c1c(-c2cnn(CCO)c2)oc2cc(N(C)S(C)(=O)=O)c(-c3ccc4c(n3)-c3cc5c(F)cccc5n3CC4)cc12 [Example 23]
HCV genotype 1a replicon; [1]
  IC50: 212 nM
HCV genotype 1b replicon; [2]
  IC50: 83.2 nM

## CNC(=O)c1c(-c2ccc(F)cc2)oc2cc(N(C)S(C)(=O)=O)c(-c3ccc4c(n3)-c3cc5c(F)cccc5n3CC43CC3)cc12 [Example 97, 5-(11′-fluoro-6′H-spiro[cyclopropane-1,5′-indolo[1,2-h][1,7]naphthyridin]-2′-yl)-2-(4-fluorophenyl)-N-methyl-6-(N-methylmethylsulfonamido)benzofuran-3-carboxamide]
HCV genotype 1a replicon; [1]
  IC50: 10.7 nM
HCV genotype 1b replicon; [2]
  IC50: 9.98 nM

## CNC(=O)c1c(-c2ccc(C)nc2)oc2cc(N(C)S(C)(=O)=O)c(-c3ccc4c(n3)-c3cc5c(F)cccc5n3CC4)cc12 [Example 7]
HCV genotype 1a replicon; [1]
  IC50: 17.6 nM
HCV genotype 1b replicon; [2]
  IC50: 6.79 nM

## CNC(=O)c1c(-c2ccc(C)nc2)oc2cc(N(C)S(C)(=O)=O)c(-c3ccc4c(n3)-c3cc5c(F)cccc5n3C(CCN3CC(F)C3)C4)cc12 (stereo not shown) [Example 66, 5-(11-fluoro-6-(2-(3-fluoroazetidin-1-yl)ethyl)-5,6-dihydroindolo[1,2-h][1,7]naphthyridin-2-yl)-N-methyl-6-(N-methylmethylsulfonamido)-2-(6-methylpyridin-3-yl)benzofuran-3-carboxamide]
HCV genotype 1a replicon; [3]
  IC50: 13 nM
HCV genotype 1b replicon; [4]
  IC50: 11.4 nM

## CNC(=O)c1c(-c2ccc(F)cc2F)oc2cc(N(C)S(C)(=O)=O)c(-c3ccc4c(n3)-c3cc5c(F)cccc5n3C(CO)C4)cc12 (single isomer, unassigned) [Example 51, (S or R)-2-(2,4-difluorophenyl)-5-(11-fluoro-6-(hydroxymethyl)-5,6-dihydroindolo[1,2-h][1,7]naphthyridin-2-yl)-N-methyl-6-(N-methylmethylsulfonamido)benzofuran-3-carboxamide]
HCV genotype 1a replicon; [1]
  IC50: 4.49 nM
HCV genotype 1b replicon; [2]
  IC50: 3.42 nM

## CNC(=O)c1c(-c2ccc(F)cc2)oc2cc(N(C)S(C)(=O)=O)c(-c3ccc4ccn5c6ccc(OC)nc6cc5c4n3)cc12 [Example 80]
HCV genotype 1a replicon; [1]
  IC50: 27.7 nM
HCV genotype 1b replicon; [2]
  IC50: 9.77 nM
